From ChEMBL document CHEMBL4476874, “Compounds for the modulation of myc activity” (2018) come the findings set out here.

Each structure is given as a SMILES string. pIC50: −log10 of the molar value.

For experiment [1], the target named is Myc proto-oncogene protein (Homo sapiens, UniProt P01106). Description: Inhibition of human c-Myc assessed as reduction in c-Myc/Max/Ebox DNA complex formation using pre-formed complex of c-Myc and biotinylated DNA containing single Ebox-sequence followed by compound addition and further addition of his6-tagged c-Max and incubated for 2 hrs by AlphaScreen assay. On the technique in general: Alpha assays give light when donor and acceptor beads are brought close together.
Myc proto-oncogene protein, sequence (P01106 whole entry): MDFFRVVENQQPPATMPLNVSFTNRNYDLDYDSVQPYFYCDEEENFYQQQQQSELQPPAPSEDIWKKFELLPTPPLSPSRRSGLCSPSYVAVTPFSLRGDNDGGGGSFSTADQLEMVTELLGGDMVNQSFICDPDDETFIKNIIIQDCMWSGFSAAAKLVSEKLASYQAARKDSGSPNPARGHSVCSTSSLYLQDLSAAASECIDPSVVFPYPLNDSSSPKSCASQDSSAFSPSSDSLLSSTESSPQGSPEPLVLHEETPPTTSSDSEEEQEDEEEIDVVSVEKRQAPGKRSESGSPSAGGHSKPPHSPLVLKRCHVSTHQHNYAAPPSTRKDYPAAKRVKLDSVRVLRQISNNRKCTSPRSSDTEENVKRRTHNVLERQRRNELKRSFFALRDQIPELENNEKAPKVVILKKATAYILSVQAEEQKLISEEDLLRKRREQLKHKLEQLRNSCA

The test system of experiment [2] is NCI-H2171. The experiment is described as follows: Antiproliferative activity against human NCI-H2171 cells after 72 hrs by ATPlite assay. It is filed as functional, cell-based. The settings on record: NCI-H2171, 72 h. On the technique in general: Cellular ATP, detected with luciferase, serves as a proxy for viable cell number.

As for `CNS(=O)(=O)c1cccc(-c2ccc3nc(-c4c(NC(=O)CCNCCOC)sc5c4CCNC5)sc3c2)c1`, the pIC50 in experiment [1] was 6.00 to 6.52; in experiment [2] it was > 6.52.
Take `COCCNCCC(=O)Nc1sc2c(c1-c1nc3ccc(-c4ccnc(OC)c4)cc3s1)CCNC2`: the pIC50 in experiment [1] is 6.00 to 6.52; in experiment [2], > 6.52.
The corresponding values for `COCCNCCC(=O)Nc1sc2c(c1-c1nc3ccc(-c4ccncc4C)cc3s1)CCNC2` are < 5.00 and > 6.52.
Taken in the same sequence, the figures for `CNS(=O)(=O)c1cccc(-c2ccc3sc(-c4c(NC(=O)CCNCCOC)sc5c4CCNC5)nc3c2)c1` were 6.00 to 6.52 and > 6.52.
On to `Cc1noc(C)c1-c1ccc2sc(-c3c(NC(=O)CCNC(C)C)sc4c3CCNC4)nc2c1`, for which the pIC50 in experiment [1] is 5.00 to 6.00; in experiment [2] it was 6.00 to 6.52.
For `COCCNCCC(=O)Nc1sc2c(c1-c1nc3cc(-c4cnn(C)c4C)ccc3s1)CCNC2`, the pIC50 was 6.00 to 6.52 in experiment [1] and > 6.52 in experiment [2].
For `CCOc1ccc(-c2ccc3sc(-c4c(NC(=O)CCNCCOC)sc5c4CCNC5)nc3c2)cn1`, the pIC50 in experiment [1] is 6.00 to 6.52; in experiment [2], > 6.52.
Turning to `COCCNCCC(=O)Nc1sc2c(c1-c1nc3ccc(-c4ccc(N5CCN(C)CC5)cc4)cc3s1)CCNC2`, the pIC50 in experiment [1] and in experiment [2] was > 6.52 in each case.
Take `CNCCC(=O)Nc1sc2c(c1-c1nc3ccccc3s1)CCN(C(C)C)C2`: the pIC50 in experiment [1] and in experiment [2] was > 6.52 in each case.
Take `COCCNCCC(=O)Nc1sc2c(c1-c1nc3ccc(-c4cccc(C(=O)N(C)C)c4)cc3s1)CCNC2`: the pIC50 in experiment [1] was 6.00 to 6.52; in experiment [2], > 6.52.
Turning to `CC(C)NCCC(=O)Nc1sc2c(c1-c1nc3ccc(-c4cnn(C)c4)cc3s1)CCNC2`, the pIC50 in experiment [1] and in experiment [2] was > 6.52 in each case.
On to `CC(C)NCCC(=O)Nc1sc2c(c1-c1nc3cc(-c4cccnc4)ccc3s1)CCNC2`, for which the pIC50 in experiment [1] and in experiment [2] was > 6.52 in each case.
Take `COCCNCCC(=O)Nc1sc2c(c1-c1nc3ccccc3s1)C[C@@H](C)NC2`: in experiment [2], the pIC50 was > 6.52.
With `CCC(C)N(CCC(=O)Nc1sc2c(c1-c1nc3ccccc3s1)CCNC2)C(C)=O` (configuration not stated), the pIC50 in experiment [1] and in experiment [2] was 5.00 to 6.00 throughout.
With `CC(C)N1CCc2c(sc(NC(=O)CCN3CCN(C)CC3)c2-c2nc3ccccc3s2)C1`, the pIC50 in experiment [1] and in experiment [2] was 6.00 to 6.52 each time.
Take `Cc1nn(C)cc1-c1ccc2sc(-c3c(NC(=O)CCNC(C)C)sc4c3CCNC4)nc2c1`: the values for the pIC50 in experiment [1] and in experiment [2] were > 6.52 and 5.00 to 6.00, respectively.
On to `COCCNCCC(=O)Nc1sc2c(c1-c1nc3ccc(-c4cccc(C(=O)N5CCN(C)CC5)c4)cc3s1)CCNC2`, for which the pIC50 in experiment [1] was 6.00 to 6.52.
In the case of `COCCNCCC(=O)Nc1sc2c(c1-c1nc3cc(-c4ccc(C(=O)N(C)C)cc4F)ccc3s1)CCNC2`, the pIC50 in experiment [1] was 6.00 to 6.52; in experiment [2], > 6.52.
With `CCN(CC)CCNCCC(=O)Nc1sc2c(c1-c1nc3ccccc3s1)CCN(C(C)C)C2`, the pIC50 is 6.00 to 6.52 in experiment [1] and 5.00 to 6.00 in experiment [2].
The corresponding values for `CC(C)NCCC(=O)Nc1sc2c(c1-c1nc3cc(-c4ccc(O)cc4)ccc3s1)CCNC2` are > 6.52 and 6.00 to 6.52.
On to `CC(C)NCCC(=O)Nc1sc2c(c1-c1nc3cc(-c4cn[nH]c4)ccc3s1)CCNC2`, for which the pIC50 in experiment [1] and in experiment [2] was > 6.52 throughout.
Turning to `CC(C)NCCC(=O)Nc1sc2c(c1-c1nc3ccccc3o1)CCNC2`, the pIC50 in experiment [1] was 6.00 to 6.52; in experiment [2], > 6.52.
The corresponding values for `COCCNCCC(=O)Nc1sc2c(c1-c1nc3cc(-c4cccnc4C)ccc3s1)CCNC2` are 5.00 to 6.00 and > 6.52.
On to `CC(=O)Nc1sc2c(c1-c1nc3ccc(-c4ccncc4)cc3s1)CCNC2`, for which, in experiment [2], the pIC50 was 6.00 to 6.52.
Take `CC(C)N1CCc2c(sc(NC(=O)CCNCCc3cccnc3)c2-c2nc3ccccc3s2)C1`: the pIC50 in experiment [1] and in experiment [2] was 6.00 to 6.52 each time.
As to `NCCC(=O)Nc1sc2c(c1-c1nc3ccccc3s1)CCNC2`, the pIC50 in experiment [1] and in experiment [2] was > 6.52 in each case.
In the case of `COCCNCCC(=O)Nc1sc2c(c1-c1nc3ccc(-c4ccc(C)nc4)cc3s1)CCNC2`, the pIC50 in experiment [1] is 6.00 to 6.52; in experiment [2], > 6.52.
Consider `COc1ccc2sc(-c3c(NC(=O)CCNC(C)C)sc4c3CCNC4)nc2c1Cl`, for which the pIC50 is > 6.52 in experiment [1] and 6.00 to 6.52 in experiment [2].
Taken in the same sequence, the figures for `COCCNCCC(=O)Nc1sc2c(c1-c1nc3ccc(-c4ccnc(C)c4)cc3s1)CCNC2` were 6.00 to 6.52 and > 6.52.
The corresponding values for `CC(C)N1CCc2c(sc(NC(=O)CCN3CCOCC3)c2-c2nc3ccccc3s2)C1` are 6.00 to 6.52 and > 6.52.
Consider `COCCNCCC(=O)Nc1sc2c(c1-c1nc3cc(-c4ccncc4C)ccc3s1)CCNC2`, for which the pIC50 in experiment [1] is 5.00 to 6.00; in experiment [2], > 6.52.
For the compound `CC(C)NCCC(=O)Nc1sc2c(c1-c1nc3c(NC(=O)c4ccccc4)cccc3s1)CCNC2`, the pIC50 in experiment [1] was 5.00 to 6.00.
For the compound `COCCNCCC(=O)Nc1sc2c(c1-c1nc3cc(-c4ccc(F)nc4F)ccc3s1)CCNC2`, the pIC50 was 6.00 to 6.52 in experiment [1] and > 6.52 in experiment [2].
Taken in the same sequence, the figures for `COCCNCCC(=O)Nc1sc2c(c1-c1nc3ccc(-c4cncc(C(F)(F)F)c4)cc3s1)CCNC2` were < 5.00 and > 6.52.
In the case of `COCCNCCC(=O)Nc1sc2c(c1-c1nc3cc(-c4ccccc4NS(C)(=O)=O)ccc3s1)CCNC2`, the pIC50 in experiment [1] is 5.00 to 6.00; in experiment [2], > 6.52.
Turning to `CC(C)NCCC(=O)Nc1sc2c(c1-c1nc3cc(N4CCS(=O)(=O)CC4)ccc3s1)CCNC2`, the pIC50 in experiment [1] is 6.00 to 6.52; in experiment [2], > 6.52.
With `CC(C)NCCC(=O)Nc1sc2c(c1-c1nc3ccccc3s1)CC1CCC2N1` (configuration not stated), the results for the negative-log IC50 (pIC50) in experiment [1] and in experiment [2] were 5.00 to 6.00 and > 6.52, respectively.
The corresponding values for `COCCNCCC(=O)Nc1sc2c(c1-c1nc3cc(-c4ccc(F)nc4)ccc3s1)CCNC2` are > 6.52 and 6.00 to 6.52.
For the compound `CC(C)NCCC(=O)Nc1sc2c(c1-c1nc3cc(C(C)O)ccc3s1)CCNC2` (configuration not stated), the pIC50 in experiment [1] was > 6.52.
With `Cc1cn(-c2ccc3sc(-c4c(NC(=O)CCNC(C)C)sc5c4CCNC5)nc3c2)cn1`, the pIC50 in experiment [1] and in experiment [2] was > 6.52 each time.
In the case of `COCCNCCC(=O)Nc1sc2c(c1-c1nc3cc(-c4cccc(C#N)c4)ccc3s1)CCNC2`, the pIC50 in experiment [1] was 6.00 to 6.52; in experiment [2] it was > 6.52.
Taken in the same sequence, the figures for `COCCNCCC(=O)Nc1sc2c(c1-c1nc3ccc(-c4c[nH]nc4C)cc3s1)CCNC2` were 6.00 to 6.52 and > 6.52.
As to `CC(C)NCCC(=O)Nc1sc2c(c1-c1nc3cc(C4=CCN(S(C)(=O)=O)CC4)ccc3s1)CCNC2`, the pIC50 in experiment [1] is > 6.52; in experiment [2] it was 6.00 to 6.52.
Taken in the same sequence, the figures for `CC(C)N1CCc2c(sc(NC(=O)CCNCc3ccccc3)c2-c2nc3ccccc3s2)C1` were 5.00 to 6.00 and 5.00 to 6.00.
`COCCNCCC(=O)Nc1sc2c(c1-c1nc3cc(F)ccc3s1)CCN[C@H]2C`: the pIC50 in experiment [2] is > 6.52.
In the case of `CC(C)NCCC(=O)N(C)c1sc2c(c1-c1nc3cc(-c4cnn(C)c4)ccc3s1)CCNC2`, the pIC50 was < 5.00 in experiment [1] and 5.00 to 6.00 in experiment [2].
Take `COCCNCCC(=O)Nc1sc2c(c1-c1nc3cc(-c4cnc(N5CCOCC5)nc4)ccc3s1)CCNC2`: the values for the negative logarithm of the IC50 (pIC50) in experiment [1] and in experiment [2] were 6.00 to 6.52 and > 6.52, respectively.
As for `CC(C)NCCC(=O)Nc1sc2c(c1-c1nc3cc(C4CCCCC4)ccc3s1)CCNC2`, the pIC50 was < 5.00 in experiment [1] and 6.00 to 6.52 in experiment [2].
Turning to `Cc1cc(-c2ccc3sc(-c4c(NC(=O)CCNC(C)C)sc5c4CCNC5)nc3c2)n(C)n1`, the figures for the pIC50 in experiment [1] and in experiment [2] were > 6.52 and 6.00 to 6.52, respectively.
`COCCNCCC(=O)Nc1sc2c(c1-c1nc3cc(-c4cnn(Cc5ccccc5)c4)ccc3s1)CCNC2`: the pIC50 is 5.00 to 6.00 in experiment [1] and > 6.52 in experiment [2].
Taken in the same sequence, the figures for `COCCNCCC(=O)Nc1sc2c(c1-c1nc3ccc(-c4cncnc4)cc3s1)CCNC2` were 6.00 to 6.52 and > 6.52.
Regarding `COCCNCCC(=O)Nc1sc2c(c1-c1nc3c(N4CCCC4)cccc3s1)CCNC2`, the negative-log IC50 (pIC50) in experiment [1] was > 6.52.
`CC(C)N1CCc2c(sc(NC(=O)CCN(C)C)c2-c2nc3ccccc3s2)C1`: the pIC50 in experiment [1] is 6.00 to 6.52; in experiment [2], > 6.52.
Taken in the same sequence, the figures for `COCCNCCC(=O)Nc1sc2c(c1-c1nc3cc(-c4c(C)nn(C)c4C)ccc3s1)CCNC2` were 5.00 to 6.00 and > 6.52.
Taken in the same sequence, the figures for `COCCNCCC(=O)Nc1sc2c(c1-c1nc3cc(-c4cncc(C(F)(F)F)c4)ccc3s1)CCNC2` were 6.00 to 6.52 and > 6.52.
With `COCCNCCC(=O)Nc1sc2c(c1-c1nc3ccc(-c4cccc(S(N)(=O)=O)c4)cc3s1)CCNC2`, the pIC50 in experiment [1] is 6.00 to 6.52; in experiment [2], > 6.52.
The corresponding values for `COCCNCCC(=O)Nc1sc2c(c1-c1nc3cc(-c4ccnc(OC)c4)ccc3s1)CCNC2` are 6.00 to 6.52 and > 6.52.
The corresponding values for `COCCNCCC(=O)Nc1sc2c(c1-c1nc3ccccc3s1)CCN(C(C)C)C2` are 6.00 to 6.52 and 5.00 to 6.00.
On to `CNC(=O)Nc1ccc(-c2ccc3nc(-c4c(NC(=O)CCNCCOC)sc5c4CCNC5)sc3c2)cc1`, for which the pIC50 in experiment [1] was 5.00 to 6.00; in experiment [2], > 6.52.
Taken in the same sequence, the figures for `COCCNCCC(=O)Nc1sc2c(c1-c1nc3ccc(-c4cncc(F)c4)cc3s1)CCNC2` were 6.00 to 6.52 and > 6.52.
Regarding `CC(=O)Nc1sc2c(c1-c1nc3ccccc3s1)C[C@@H](C)N[C@H]2C` (relative stereo), the pIC50 in experiment [2] is 5.00 to 6.52.
The compound `CC[C@H](C)NCCC(=O)Nc1sc2c(c1-c1nc3ccccc3s1)CC(C)NC2C` (single isomer, unassigned; 620) showed a negative-log IC50 (pIC50) in experiment [2] of 5.00 to 6.00.
The same measure, in the same setting: then `CC[C@H](C)NCCC(=O)Nc1sc2c(c1-c1nc3ccccc3s1)CC(C)NC2C` (single isomer, unassigned; 621), with 5.00 to 6.00.
Regarding `CC[C@H](C)NCCC(=O)Nc1sc2c(c1-c1nc3ccccc3s1)CC(C)NC2C` (single isomer, unassigned; 624), in experiment [2], the pIC50 is > 6.52.

Usually pIC50 stands for the IC50 on a negative log10 scale, so that one unit is a factor of ten.
